Counter-ions that a name gives are not always drawn. Like-named read-outs stand apart in the source and are kept apart here.
Assays:
[1] = tested on: o/c ratio in H9 embryonic stem cells; conditions: Teratogen Index, o/c ratio; cited from earlier work
[2] = tested on: SOX17 (endoderm marker) in RUES2-GLR cells; experiment: DevTox GLR-Endo assay: decrease in percent SOX17-positive cells (AEID 3094, Sox17_dn); conditions: for AC50 / Emax: Homo sapiens; for Hit Call: Table S2, SOX17-positive cells, cutoff 3*bmad; for HIT−CALL: tcpl plot AEID3094, COFF 20.3; for hit call designation (in words): DevTox GLR-Endo prediction against developmental toxicant classification; for DevTox ACC: Table S2, percent SOX17-positive cells
Method in brief: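 Readouts are loss of SOX17-positive fraction and reduced cell number in endoderm-differentiating RUES2-GLR cells after 48 h of chemical exposure. Controls: undifferentiated and differentiated cells, 0.2% DMSO, and 1 µM SB431542; at least four biological replicates.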

[3] = tested on: SOX2 (ectoderm and pluripotency marker) in RUES2-GLR cells; experiment: DevTox GLR-Endo assay: increase in percent SOX2-positive cells (AEID 3095, Sox2_up); conditions: for AC50 / Emax: Homo sapiens; for AC50: read-out: ga (winning model); for Emax: read-out: tp (winning model); for MAX_MEAN: tcpl plot AEID3095, maximum mean response; for MAX_MED: tcpl plot AEID3095, maximum median response;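 on all read-outs here: cells exposed to test chemicals for 48 h in total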
Procedure: RUES2-GLR cells were seeded 24 h prior to differentiation initiation into vitronectin-coated 384-well CellCarrier Ultra plates (10.6 mm^2/well) (Perkin Elmer, Waltham, MA, USA). Vitronectin (0.5 µg/cm^2)-coated plates were prepared and stored at 4 °C, wrapped in parafilm, for less than seven days and incubated at room temperature for one hour prior to cell seeding. […] Cells were dispensed into 20 µL coating solution using a Certus FLEX Micro Dispenser (Fritz Gyger, Gwatt, Switzerland) with a 0.45 µm valve to a final volume of 100 µL and density of 2.8 × 10^3 cells per well.
Following a 24 h post-seeding incubation period (Time = 0 h) (Figure 3A), directed endoderm differentiation was initiated with the PSC Definitive Endoderm Induction kit (Gibco, Waltham, MA, USA). […] A target dilution series (0.002–200 µM) was generated by dispensing variable nanoliter volumes of test chemical and backfilling with a complementary volume of DMSO using Echo Cherry Pick software (v.1.6.2). Wells were backfilled with 50 µL of induction medium using a Certus FLEX Micro Dispenser with 0.45 µm valves. Test compound treatment plates were mixed on a Multi-Microplate Genie mixer at 700 rpm for 10 min and subsequently incubated for two hours in a humidified atmosphere at 37 °C with 5% CO2. Each chemical treatment (0 h–Medium A; 24 h–Medium B) were prepared the day of treatment. At 0 h, cell culture medium was aspirated from the assay plate at a rate of 1 µL/s and 40 µL of Medium A ± test chemical applied using a CyBio FeliX automated liquid handler (Analytik Jena, Jena, Germany). At 24 h, conditioned cell culture medium was aspirated and 40 µL of Medium B ± test chemical was applied. At 48 h, cells were prepared for high-content image acquisition by fixation and nuclear staining. The total test chemical incubation period was 48 h. For fixation, a 4% paraformaldehyde (PFA) solution was achieved by adding 40 µL of 8% PFA directly to cell culture medium using a CyBio FeliX liquid handler. […] Following an additional 30 min incubation period at room temperature, staining solution was aspirated, 50 µL of DPBS was added, and plate sealed with MicroAmp Optical Adhesive Film (Applied Biosystems, Waltham, MA, USA).
Images were acquired within 12 h post-fixation using an Opera Phenix High-Content Screening System (Perkin Elmer, Waltham, MA, USA). […] Cell identification and mean biomarker fluorescent intensities were calculated using Harmony image analysis software (Perkin Elmer, Waltham, MA, USA). Cell nuclei were identified using the object classifying algorithm C of the software with border objects excluded using the “Remove Border Objects” feature. Mean cell biomarker intensity statistics were gathered from each object and exported for further analysis using a custom script in Python version 3.7.4 [61] […] For each plate, pluripotent-negative control wells were used to establish baseline intensity values and a cutoff threshold for determining SOX17 and BRA biomarker-positive cells. Endoderm differentiated positive control wells were used to establish baseline intensity values and a cutoff threshold for SOX2-positive cells. Cells with a mean intensity five times the baseline median absolute deviation (5*bmad) above the median cell intensity for plate-based control population technical replicates were considered positive. Well-based cell counts, reflected by the sum of total counted objects from all fields, were used to calculate the percent responders for each respective biomarker and evaluate cytotoxicity. Well-level results were exported for data modeling in the ToxCast Pipeline.
The ToxCast Pipeline R package (tcpl v.2.0.2) was used to normalize, fit, and qualify concentration-response screening data [63].

[4] = tested on: SOX17 (endoderm marker) in RUES2-GLR cells; experiment: DevTox GLR-Endo assay: increase in percent SOX17-positive cells (AEID 3093, Sox17_up); assay type: cell-based, human; conditions: for Emax: Homo sapiens; for HIT−CALL: tcpl plot AEID3093, COFF 20.3
Procedure: (§1) The total test chemical incubation period was 48 h.
(§2) (Supplementary Materials).

[5] = tested on: RUES2-GLR cells; experiment: DevTox GLR-Endo assay: decrease in total cell count, cytotoxicity (AEID 3098, CellCount_dn); conditions: for Emax: Homo sapiens, read-out: Cell Count % Max Inhibition
[6] = cited from earlier work; for Classification: developmental toxicant classification (Teratogen / Non-Teratogen) of reference and training chemicals, ref DOI per chemical: 10.1093/toxsci/kft239, 10.1093/toxsci/kfaa014, 10.1177/026119290203000204, 10.1038/s41598-020-59542-x; for DT Class.: developmental toxicant classification; for Development Toxicant Classification: Table S2
[7] = tested on: BRA (mesoderm marker) in RUES2-GLR cells; experiment: DevTox GLR-Endo assay: increase in percent BRA-positive cells (AEID 3096, Bra_up); assay type: cell-based, human; conditions: for HIT−CALL: tcpl plot AEID3096, COFF 0.774; for MAX_MEAN: tcpl plot AEID3096, maximum mean response; for MAX_MED: tcpl plot AEID3096, maximum median response
Procedure: as §1, §2

[8] = tested on: SOX17 in H9 human ESC line; conditions: SOX17 half-maximal inhibition concentration; read-out: hPST IC50; cited from earlier work
[9] = tested on: H9 human ESC line; conditions: cited from earlier work
[10] = in vitro; conditions: human
[11] = read-out: ga (winning model), tcpl plot AEID3094, gain parameter of winning curve fit (log concentration, µM axis), hit calls only (converted)
[12] = tcpl plot AEID3093, maximum mean response, read-out: MAX_MEAN
[13] = tcpl plot AEID3093, maximum median response, read-out: MAX_MED
[14] = 48 h, read-out: DevTox-GLR Endo AC50 (µM), SOX17 half-maximal activity concentration, 48 h exposure
[15] = read-out: DevTox % Max Inhibition
[16] = cytotoxicity half-maximal concentration

For `CCCCc1oc2ccccc2c1C(=O)c1cc(I)c(OCCN(CC)CC)c(I)c1` [Amiodarone], the “quickPredict TI” value [1] is given as 5.1 µM, the AC50 [2, 11] is given as 17 µM and the “Hit Call” value [2] is given as “Positive”. For the same compound, the “HIT−CALL” value [2] was 1, the AC50 [3] was 11.7 µM and the Emax [3] was 1.23%. For the same compound, the MAX_MEAN [3] was 2.82 Percent Activity, the MAX_MED [3] was 2.22 Percent Activity and the Emax [4, 12] was 6.18%. The Emax [4, 13] was 3.59%, the “HIT−CALL” value [4] was 0 and the Emax [5] was 97.1%. For the same compound, the Classification [6] was “Teratogen” and the “DT Class.” value ([6]; chemicals common with quickPredict) was “Pos”.
With `O=C(c1ccc(F)cc1)C1CCN(CCn2c(=O)[nH]c3ccccc3c2=O)CC1` [Ketanserin] the “HIT−CALL” value [7] was 0, the MAX_MEAN [7] was 1.82 Percent Activity and the MAX_MED [7] was 2.05 Percent Activity. For the same compound, the “hit call designation (in words)” value [2] was “false positive”, the AC50 [2, 14] was 36.6 µM and the Emax [2, 15] was 33.3%. It also gave an Emax ([2]; read-out: MAX_MEAN) of 36.9%, an Emax ([2]; read-out: MAX_MED) of 33.3% and an AC50 [2, 11] of 36.3 µM. The Emax ([2]; read-out: tp (winning model)) was 31.8%, the “Hit Call” value [2] was “Positive” and the “DevTox ACC” value ([2]; 48 h exposure) was 39.2719 µM. For the same compound, the “HIT−CALL” value [2] was 1, the MAX_MEAN [3] was 1.16 Percent Activity and the MAX_MED [3] was 1.15 Percent Activity. The IC50 [8] was greater than 200 µM, the Emax [4, 12] was 5.18% and the Emax [4, 13] was 5.62%. For the same compound, the “HIT−CALL” value [4] was 0, the “hPST TC50” value [9, 16] was greater than 200 µM and the “hPST TC50” value ([9]; hPST cytotoxicity) was greater than 200 µM. For the same compound, the CC50 at 48 h [10] was 57.5 µM, the Emax [5] was 68.7% and the “Cell Count ACC” value ([5]; human, 48 h) was 33.5346 µM. For the same compound, the “Development Toxicant Classification” value [6] was “Negative”, the Classification [6] was “Non-Teratogen” and the “DT Class.” value ([6]; chemicals common with hPST) was “Neg”.
For `COc1ccc2c(c1)c(CC(=O)O)c(C)n2C(=O)c1ccc(Cl)cc1` [Indomethacin], the “quickPredict TI” value [1] is listed as 72.7 µM, the Emax [2, 15] is listed as 101% and the Emax ([2]; read-out: MAX_MEAN) is listed as 100%. The Emax ([2]; read-out: MAX_MED) was 101%, the AC50 [2, 11] was 13.2 µM and the Emax ([2]; read-out: tp (winning model)) was 101%. The “Hit Call” value [2] was “Positive”, the “DevTox ACC” value ([2]; 48 h exposure) was 9.385 µM and the “DevTox-GLR Endo ACC” value ([2]; activity concentration at cutoff, SOX17-positive cells, 48 h exposure) was 9.38 µM. For the same compound, the “HIT−CALL” value [2] was 1, the AC50 [3] was 12.9 µM and the Emax [3] was 6.38%. For the same compound, the MAX_MEAN [3] was 6.48 Percent Activity, the MAX_MED [3] was 6.65 Percent Activity and the Emax [4, 12] was 0.625%. For the same compound, the Emax [4, 13] was -1.03%, the “HIT−CALL” value [4] was 0 and the Emax [5] was 92.5%. For the same compound, the “Cell Count ACC” value ([5]; human, 48 h) was 8.702 µM and the “DevTox-GLR Endo CC” value ([5]; human, 48 h) was 8.70 µM.
In the case of `[H]/N=C(/NCCCCC)N/N=C/c1c[nH]c2ccc(OC)cc12` [Tegaserod Maleate], the “HIT−CALL” value [7] is reported as 1, the MAX_MEAN [7] is reported as 3.57 Percent Activity and the MAX_MED [7] is reported as 2.57 Percent Activity. For the same compound, the “hit call designation (in words)” value [2] was “false positive”, the AC50 [2, 14] was 5.32 µM and the Emax [2, 15] was 102%. The Emax ([2]; read-out: MAX_MEAN) was 102%, the Emax ([2]; read-out: MAX_MED) was 102% and the AC50 [2, 11] was 5.32 µM. The Emax ([2]; read-out: maximum observed effect level class (% max inhibition)) was 80 to 100%, the Emax ([2]; read-out: tp (winning model)) was 102% and the “Hit Call” value [2] was “Positive”. For the same compound, the “DevTox ACC” value ([2]; 48 h exposure) was 4.472 µM, the “HIT−CALL” value [2] was 1 and the MAX_MEAN [3] was 2.78 Percent Activity. For the same compound, the MAX_MED [3] was 2.79 Percent Activity, the IC50 [8] was 4.6 µM and the Emax [4, 12] was 6.89%. The Emax [4, 13] was 6.94%, the “HIT−CALL” value [4] was 0 and the “hPST TC50” value [9, 16] was 4.5 µM. For the same compound, the “hPST TC50” value ([9]; hPST cytotoxicity) was 4.5 µM, the CC50 at 48 h ([10]; RUES2-GLR cells under directed endoderm differentiation) was 5.06 µM and the Emax [5] was 98.8%. The “Cell Count ACC” value ([5]; Table S2, 48 h exposure) was 4.239 µM, the “Development Toxicant Classification” value [6] was “Negative” and the Classification [6] was “Non-Teratogen”. For the same compound, the “DT Class.” value ([6]; chemicals common with hPST) was “Neg”.

— publication PMC9321663, “The DevTox Germ Layer Reporter Platform: An Assay Adaptation of the Human Pluripotent Stem Cell Test” (Toxics, 2022)
